Ten molecules from patent US5506256A, “Proline derivatives possessing prolyl endopeptidase-inhibitory activity” (Yoshitomi Pharmaceutical Industries, Ltd., priority 1990, dated 1996) can be followed below.

The subject of assay [1] is leucine aminopeptidase. Nature of the assay: Determination of leucine aminopeptidase-inhibitory activity. Type of assay: biochemical, swine. Also noted: unit not given here. On the procedure: (§1) The methods for the measurement of inhibitory activities against various proteases and the method for calculating the inhibition rate are as follows.
Determination of leucine aminopeptidase-inhibitory activity
Similarly, by following the procedure mentioned above, but employing a 50 mM Tris-HCl buffer (pH 8.0) as a buffer for measurement, a […] solution of leucine aminopeptidase (derived from swine kidney, Sigma) in the same buffer as an enzyme solution and a 200 μM solution of 7-leucyl-4-methyl-coumarinamide (Peptide Institute, Inc.) in the same buffer as a substrate solution, each fluorescence (d1, d2 and d3) was determined, respectively.
(§2) Using the fluorescence x1, x2 and x3 measured in the abovementioned manner, the inhibitory rate against various proteases was calculated by the following formula where x stands for b, c, d, e or f: [formula]

Assay [2] addresses T1, elastase (Sus scrofa, UniProt P00772).
T1 construct: purchased Sigma; host or cells: swine pancreas
Nature of the assay: Determination of elastase-inhibitory activity. Type of assay: biochemical, swine. The note with it: read-out: inhibition rate, elastase. How it is done:
as §1
Determination of elastase-inhibitory activity
Similarly, by following the procedure mentioned above, but employing a 1 mM Tris-HCl buffer (pH 8.5) as a buffer for measurement, a 0.2 μM solution of elastase (derived from swine pancreas, Sigma) in the same buffer as an enzyme solution and a 200 μM solution of 7-(N-succinyl-aranyl-prolyl-aranyl)-4-methylcoumarinamide (Peptide Institute, Inc.) in the same buffer as a substrate solution, each fluorescence (e1, e2 and e3) was determined, respectively.
as §2

Assay [3] addresses T2, cathepsin B (Bos taurus, UniProt P07688).
T2 construct: purchased Sigma; host or cells: bovine spleen
Nature of the assay: Determination of cathepsin B-inhibitory activity. Type of assay: biochemical, bovine. The note with it: read-out: inhibition rate, cathepsin B. How it is done:
as §1
Determination of cathepsin B-inhibitory activity
Similarly, by following the procedure mentioned above, but employing a 100 mM sodium phosphate buffer (pH 6.0; containing 1.33 mM EDTA Na2) as a buffer for measurement, a 0.02 μM solution of cathepsin B (derived from bovine spleen, Sigma) in the same buffer as an enzyme solution and a 200 μM solution of 7-(N-benzyloxycarbonyl-phenylaranyl-arginyl)-4-methylcoumarinamide (Peptide Institute, Inc.) in the same buffer as a substrate solution, each fluorescence (f1, f2 and f3) was determined, respectively.
as §2

In assay [4] the target is T3, trypsin (Bos taurus, UniProt P00760).
T3 construct: purchased Sigma; host or cells: bovine pancreas
T3 sequence (P00760 24-246): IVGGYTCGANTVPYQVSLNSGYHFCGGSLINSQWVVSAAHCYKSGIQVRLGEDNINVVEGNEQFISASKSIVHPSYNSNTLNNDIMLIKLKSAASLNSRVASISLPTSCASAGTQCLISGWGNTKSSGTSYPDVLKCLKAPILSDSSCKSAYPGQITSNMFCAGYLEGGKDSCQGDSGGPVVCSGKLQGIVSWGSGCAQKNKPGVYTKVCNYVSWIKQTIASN
Nature of the assay: Determination of trypsin-inhibitory activity. Type of assay: biochemical, bovine. The note with it: read-out: inhibition rate, trypsin. On the procedure:
as §1
Determination of trypsin-inhibitory activity
In the present invention, a 50 mM Tris-HCl buffer (pH 8.0) was employed as a buffer for measurement.
To a mixture of the above-mentioned buffer (850 μl), a solution of the compounds of the present invention in the same buffer (50 μl) and a 0.02 μM solution of trypsin (derived from bovine pancreas, Sigma) in the same buffer (50 μl) was added a 200 μM solution of 7-(prolyl-phenylaranyl-arginyl)-4-methylcoumarinamide (Peptide Institute, Inc.) in the same buffer (50 μl),and the mixture was incubated at 30° C. for 1 hour. The reaction mixture was immersed in ice (0° C.) to terminate the reaction, and the fluorescence (b1) was determined 1 hour later (excitation at 370 nm and emission at 440 nm). Concurrently, there were conducted the experiment wherein, in the system above, the trypsin solution was substituted for a buffer alone, and the experiment wherein the solution of the compounds of the present invention was substituted for a buffer above. Each fluorescence (b2 and b3) was determined respectively.
as §2

For assay [5], the target named is T4, prolyl endopeptidase (Rattus norvegicus, UniProt O70196).
T4 construct: prolyl endopeptidase extracted from rat brain; from tissue; host or cells: rat brain
T4 sequence (O70196 whole entry): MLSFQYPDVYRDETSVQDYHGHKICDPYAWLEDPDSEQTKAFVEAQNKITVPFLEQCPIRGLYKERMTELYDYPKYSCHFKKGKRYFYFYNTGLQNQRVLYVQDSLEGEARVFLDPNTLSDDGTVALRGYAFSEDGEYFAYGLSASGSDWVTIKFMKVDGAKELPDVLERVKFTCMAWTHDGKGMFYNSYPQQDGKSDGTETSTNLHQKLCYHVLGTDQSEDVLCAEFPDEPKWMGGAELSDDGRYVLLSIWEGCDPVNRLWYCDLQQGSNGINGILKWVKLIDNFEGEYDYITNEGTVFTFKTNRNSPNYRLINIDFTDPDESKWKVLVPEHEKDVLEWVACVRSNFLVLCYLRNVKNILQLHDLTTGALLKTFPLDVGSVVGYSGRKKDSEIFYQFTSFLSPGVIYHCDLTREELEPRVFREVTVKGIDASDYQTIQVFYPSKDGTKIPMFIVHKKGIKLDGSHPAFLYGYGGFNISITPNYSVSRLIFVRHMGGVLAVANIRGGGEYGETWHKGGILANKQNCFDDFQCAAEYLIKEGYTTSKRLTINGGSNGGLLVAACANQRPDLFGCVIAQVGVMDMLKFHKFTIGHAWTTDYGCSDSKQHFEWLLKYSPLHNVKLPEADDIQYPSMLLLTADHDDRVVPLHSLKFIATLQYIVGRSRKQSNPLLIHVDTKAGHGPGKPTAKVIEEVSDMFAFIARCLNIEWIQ
Nature of the assay: Prolyl endopeptidase-inhibitory activity. Type of assay: biochemical. The note with it: for inhibition at 1 µM / inhibition at 0.1 µM: read-out: inhibition rate, prolyl endopeptidase; for IC50: prolyl endopeptidase extracted from rat brain, pH 7.0, 30° C., read-out: IC50. How it is done: Prolyl endopeptidase-inhibitory activity
A mixture of a 0.1M potassium sodium phosphate buffer (pH 7.0) (2675 μl), a solution of the compounds of the present invention in a 0.1M potassium sodium phosphate buffer (pH 7.0) (100 μl) and a solution of prolyl endopeptidase extracted from rat brain in a 25 mM sodium phosphate buffer (100 μl) [123 unit/1, pH 6.8, containing 1 mM dithiothreitol and 0.5 mM EDTA, prepared by the method described in J. Neurochem., 35, 527 (1980)]was preincubated at 30° C. for 30 minutes. Thereto was added a 0.2 mM solution of 7-(N-succinyl-glycyl-prolyl)-4-methylcoumarinamide (Peptide Institute, INC.) in a 0.1M potassium sodium phosphate buffer (pH 7.0) (125 μl), and the mixture was incubated at 30° C. for 1 hour. The reaction mixture was immersed in ice (0° C.) to terminate the reaction, and the fluorescence (a1) was determined ten minutes later (excitation at 370 nm and emission at 440 nm). Concurrently, there were conducted the experiment wherein, in the above system, the prolyl endopeptidase solution was substituted for a 25 mM sodium phosphate buffer (pH 6.8, containing 1 mM dithiothreitol and 0.5 mM EDTA) and the experiment wherein the solution of the compounds of the present invention was substituted for a 0.1M potassium sodium phosphate buffer (pH 7.0). Each fluorescence (a2 and a3) was determined respectively [See Tanpakushitsu Kakusan Koso, 29, 127 (1984)]. The prolyl endopeptidase-inhibition rate was calculated by the following formula, and IC50, a concentration of a compound producing 50% inhibition, was estimated by semilogarithmic graph paper. [formula] […]

Assay [6] has as its target T5, chymotrypsin (Bos taurus, UniProt P00766).
T5 construct: purchased Sigma; host or cells: bovine pancreas
Nature of the assay: Determination of chymotrypsin-inhibitory activity. Type of assay: biochemical, bovine. The note with it: read-out: inhibition rate, chymotrypsin. How it is done:
as §1
Determination of chymotrypsin-inhibitory activity
Similarly, by following the procedure mentioned above, but employing a 50 mM Tris-HCl buffer (pH 8.0) as a buffer for measurement, a 0.2 μM solution of chymotrypsin (derived from bovine pancreas, Sigma) in the same buffer as an enzyme solution and a […] solution of 7-(N-succinyl-leucyl-leucyl-valyl-tyrosyl)-4-methylcoumarinamide (Peptide Institute, Inc.) in the same buffer as a substrate solution, each fluorescence (c1, c2 and c3) was determined, respectively.
as §2

T1 sequence (P00772 27-266): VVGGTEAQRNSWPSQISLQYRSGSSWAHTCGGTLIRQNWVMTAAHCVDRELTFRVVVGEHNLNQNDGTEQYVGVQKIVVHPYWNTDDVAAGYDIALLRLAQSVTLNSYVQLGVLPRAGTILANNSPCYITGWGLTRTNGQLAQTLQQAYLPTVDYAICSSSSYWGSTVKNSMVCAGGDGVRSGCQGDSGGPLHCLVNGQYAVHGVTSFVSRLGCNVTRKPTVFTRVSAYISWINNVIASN

As usually defined, the inhibition is the change of the read-out against control, counted positive when it falls. The IC50 is the concentration needed to halve the response being measured. As to `COc1ccc(OCC(=O)[C@@H]2CCCN2C(=O)[C@@H]2CCCN2C(=O)CCc2ccccc2)cc1` [Compound 20, (2S)-2-[(4-Methoxyphenoxy)acetyl]-1-[N-(3-phenylpropionyl)-L-prolyl]pyrrolidine], in assay [1] (1 μM), the “inhibition rate, leucine aminopeptidase” value came to 0. The inhibition at 1 µM in assay [2] was 0%; in assay [3] it was 0%; in assay [4] it was 0%; in assay [5], 96%; in assay [6] it was 0%. Moreover, the 50% inhibitory concentration (IC50) in assay [5] is 40 nM.

In the case of `O=C(COc1ccccc1)[C@@H]1CCCN1C(=O)[C@@H]1CCCN1C(=O)NCc1ccccc1` [Compound 21, (2S)-1-(N-Benzylaminocarbonyl-L-prolyl)-2-(phenoxyacetyl)-pyrrolidine], the “inhibition rate, leucine aminopeptidase” value in assay [1] (1 μM) is recorded as 0. For the same molecule, the inhibition at 1 µM in assay [2] amounted to 0%; in assay [3], 0%; in assay [4], 0%; in assay [5], 99%; in assay [6], 0%. Further, the IC50 in assay [5] turned out to be 15 nM.

Consider `COc1ccc(OCC(=O)[C@@H]2CCCN2C(=O)[C@@H]2CCCN2C(=O)NCc2ccccc2)cc1` [Compound 22, (2S)-1-(N-Benzylaminocarbonyl-L-prolyl)-2-(4-methoxyphenoxyacetyl)pyrrolidine], for which, in assay [1] (1 μM), the “inhibition rate, leucine aminopeptidase” value is given as 0. For the same molecule, the inhibition at 1 µM in assay [2] was 0%; in assay [3] it was 0%; in assay [4] it was 0%; in assay [5], 97%; in assay [6] it was 0%. The IC50 in assay [5] worked out at 25 nM.

Turning to `COc1ccc([S@@+]([O-])CC(=O)[C@@H]2CCCN2C(=O)[C@@H]2CCCN2C(=O)NCc2ccccc2)cc1` [Compound 23, (2S)-1-(N-Benzylaminocarbonyl-L-prolyl)-2-{[(S)-4-methoxyphenylsulfinyl]acetyl}pyrrolidine], in assay [1] (1 μM), the “inhibition rate, leucine aminopeptidase” value was 0. For the same molecule, the inhibition at 1 µM in assay [2] worked out at 0%; in assay [3] it was 0%; in assay [4] it was 0%; in assay [5] it was 99%; in assay [6], 0%. For the same molecule, in assay [5], the IC50 was found to be 15 nM.

Regarding `COc1ccc(CNC(=O)N2CCC[C@H]2C(=O)N2CCC[C@H]2C(=O)C[S@+]([O-])c2ccc(OC)cc2)cc1` [Compound 24, (2S)-1-[N-(4-Methoxybenzylaminocarbonyl)-L-prolyl]-2-{[(S)-4-methoxyphenylsulfinyl]acetyl}pyrrolidine], the “inhibition rate, leucine aminopeptidase” value in assay [1] (0.1 μM) is reported as 0. The inhibition at 0.1 µM in assay [2] was determined as 0%; in assay [3], 0%; in assay [4], 0%; in assay [5], 99%; in assay [6], 0%. Further, the IC50 in assay [5] worked out at 0.5 nM.

Consider `COc1ccc(CNC(=O)N2CCC[C@H]2C(=O)N2CCC[C@H]2C(=O)COc2ccc(OC)cc2)cc1` [Compound 25, (2S)-1-[N-(4-Methoxybenzylaminocarbonyl)-L-prolyl]-2-(4-methoxyphenoxyacetyl)pyrrolidine], for which the “inhibition rate, leucine aminopeptidase” value in assay [1] (0.1 μM) is 0. Further, the inhibition at 0.1 µM in assay [2] stood at 0%; in assay [3], 0%; in assay [4], 0%; in assay [5], 97%; in assay [6] it was 0%. Besides, the concentration for half-maximal inhibition (IC50) in assay [5] came out at 2.5 nM.

For `O=C(COc1ccc(Cl)cc1)[C@@H]1CCCN1C(=O)[C@@H]1CCCN1C(=O)CCc1ccccc1` [Compound 26, (2S)-2-(4-Chlorophenoxyacetyl)-1-[N-(3-phenylpropionyl)-L-prolyl]pyrrolidine], the “inhibition rate, leucine aminopeptidase” value in assay [1] (1 μM) worked out at 0. Besides, the inhibition at 1 µM in assay [2] amounted to 0%; in assay [3] it was 0%; in assay [4] it was 0%; in assay [5] it was 99%; in assay [6], 0%. For the same molecule, in assay [5], the IC50 amounted to 4.5 nM.

Consider `O=C(COc1ccc(O)cc1)[C@@H]1CCCN1C(=O)[C@@H]1CCCN1C(=O)CCc1ccccc1` [Compound 27, (2S)-2-(4-Hydroxyphenoxyacetyl)-l-[N-(3-phenylpropionyl)-L-prolyl]pyrrolidine], for which the “inhibition rate, leucine aminopeptidase” value in assay [1] (0.1 μM) came out at 0. Moreover, the inhibition at 0.1 µM turned out to be 0% in assay [2]; 0% in assay [3]; 0% in assay [4]; 96% in assay [5]; 0% in assay [6]. In addition, in assay [5], the IC50 was 2.5 nM.

On to `O=C(COc1ccc(Cl)cc1)[C@@H]1CCCN1C(=O)[C@@H]1CCCN1C(=O)NCc1ccc(Cl)cc1` [Compound 28, (2S)-1-[N-(4-Chlorobenzylaminocarbonyl)-L-prolyl]-2-(4-chlorophenoxyacetyl)pyrrolidine], for which the “inhibition rate, leucine aminopeptidase” value in assay [1] (0.1 μM) turned out to be 0. Further, the inhibition at 0.1 µM was 0% in assay [2]; 0% in assay [3]; 0% in assay [4]; 97% in assay [5]; 0% in assay [6]. Further, in assay [5], the IC50 worked out at 15 nM.

In the case of `O=C(COc1ccc(F)cc1)[C@@H]1CCCN1C(=O)[C@@H]1CCCN1C(=O)NCc1ccc(F)cc1` [Compound 29, (2S)-1-[N-(4-Fluorobenzylaminocarbonyl)-L-prolyl]-2-(4-fluorophenoxyacetyl)pyrrolidine], the “inhibition rate, leucine aminopeptidase” value in assay [1] (0.1 μM) worked out at 0. Also, the inhibition at 0.1 µM in assay [2] came to 0%; in assay [3], 0%; in assay [4], 0%; in assay [5], 99%; in assay [6], 0%. For the same molecule, the IC50 in assay [5] was 0.1 nM.
